In publication PMC9120013, “Ribosome inhibition by C9ORF72-ALS/FTD-associated poly-PR and poly-GR proteins revealed by cryo-EM” (Nature Communications, 2022):
Ends that are not written are not given here.

Legend:
[1] = tested on: total HEK293 RNA; assay: DPR-induced RNA aggregation, turbidity OD600; assay type: physicochemical; settings: for visible opalescence / OD600 change: 10 µM; for OD600 change / optical density relative to RNA alone: 100 ng/μl HEK293 RNA; for optical density relative to RNA alone: 0.2 to 1 µM, 20 min, room temperature
Procedure: To test whether arginine-containing DPR proteins cause mRNA aggregation at the DPR concentrations sufficient to inhibit protein synthesis (0.2 and 1 μM), we measured turbidity (optical density at 600 nm; OD600; similarly to[41]) of the solutions containing 100 ng/μl total HEK293 RNA. We incubated RNA with PR20, GR20, GP20 (control), or water for 20 min at room temperature. […] Optical density was measured using NanoDrop One (Thermo Scientific, Waltham, MA, USA).

[2] = tested on: nanoluciferase; assay: Control: nanoluciferase enzyme activity after translation stopped by cycloheximide; assay type: biochemical; settings: 1 µM added after translation stopped by CHX; n=8
Procedure: The following additional controls indicate that DPR-induced changes in fluorescence were caused by translation inhibition.
Supplementary Fig. 1. […]
(e) Nanoluciferase mRNA was translated in
the absence of DPRs, translation was stopped by cycloheximide (CHX), then 1 µM PR20
or GR20 were added and luminescence was monitored. n=8 independent experiments;
mean of normalized RLU ± SD. […]

[3] = tested on: ribosomes on endogenous globin mRNAs in RRL; assay: Polysome profiling of RRL translating endogenous mRNA; assay type: biochemical, rabbit; settings: 4 μM PR20, 4 μM GR20, 1 mM GDPCP; 5 min
Procedure: Polysome profiles were obtained using RRL untreated with nuclease, so that it contained endogenous mRNA. 100 μl reactions containing 50% RRL (Green Hectare) 30 μM hemin (Sigma), 75 mM KCl, 0.5 mM MgCl2, 1 mM ATP, 0.2 mM GTP, 2.1 mg/ml creatine phosphate, 30 μM of L-amino acid mix, 15 mg/ml yeast tRNA, 6 mM BME and, when appropriate, translation inhibitors (4 μM PR20, 4 μM GR20, cycloheximide, 40 μM harringtonine, or 1 mM GDPCP with 1 mM MgCl2) were assembled on ice. To start translation, the reactions were warmed in a heat block at either 30 °C or 37 °C as noted. After 5 min, reactions were terminated by addition of 100 μl of ice-cold Stop Buffer (50 mM Hepes-KOH pH 7.4, 150 mM KOAc, 10 mM Mg(OAc)2, and 200 μg/ml cycloheximide). The stopped reactions were applied to 10–50% sucrose gradients in Gradient Buffer (50 mM Hepes-KOH pH 7.4, 150 mM KOAc, 10 mM Mg(OAc)2, 2 mM DTT, and 100 μg/ml cycloheximide) and spun in an SW-41 rotor (Beckman Coulter) at 197,568xg (avg) for 2 h at 4 °C. Gradients were pumped on a Gradient Station (BioComp Instruments) at a pump rate of 0.29 mm/min and the absorbance at 254 nm was measured by an Econo UV monitor (Biorad) zeroed with 10% sucrose-gradient buffer. The traces were output as CSV files and imported into GraphPad Prism, where the 80S peaks were aligned. Controls were highly reproducible day-to-day. Each experimental condition is shown compared to concurrent, uninhibited control.

[4] = tested on: E. coli 70S ribosomes; assay: Erythromycin competition in the puromycin assay on 70S ribosomes; assay type: biochemical; settings: 20 μM erythromycin and/or 2 μM PR20, 30 nM 70S, quenched at 300 s
Procedure: The assay was performed as described above for the puromycin kinetics, except that the 70S ribosomes were pre-incubated with 22 μM erythromycin for 5 min prior to adding PR20. The stock solution of erythromycin contained 2 mM erythromycin in ethanol, so the control reaction (70S with no erythromycin) and the reactions with erythromycin were prepared to contain the same amount of ethanol (1%). The final concentrations after addition of puromycin were: 30 nM 70S, 66 nM [^35S]-fMet-tRNA^fMet, 1 μM mRNA, 2 μM PR20 (no PR20 in the control reaction), 20 μM erythromycin (or no erythromycin in a control reaction), 50 µM puromycin (in 20 mM Tris-acetate (pH 7.0), 100 mM NH4OAc, 12 mM Mg(OAc)2 and 1% ethanol). Samples were quenched at 300 s when the uninhibited reaction had reached a plateau.

Row | Molecule | visible opalescence [1] | OD600 change [1] | optical density relative to RNA alone [1] | effect on nanoluciferase enzyme activity [2] | polysome profile, half-mer peaks [3] | fMet-puromycin formed ([4]; first column (replicate 1)) | fMet-puromycin formed ([4]; second column (replicate 2))
1 | N=C(N)NCCC[C@H](NC(=O)CNC(=O)[C@H](CCCNC(=N)N)NC(=O)CNC(=O)[C@H](CCCNC(=N)N)NC(=O)CNC(=O)[C@H](CCCNC(=N)N)NC(=O)CNC(=O)[C@H](CCCNC(=N)N)NC(=O)CNC(=O)[C@H](CCCNC(=N)N)NC(=O)CNC(=O)[C@H](CCCNC(=N)N)NC(=O)CNC(=O)[C@H](CCCNC(=N)N)NC(=O)CNC(=O)[C@H](CCCNC(=N)N)NC(=O)CNC(=O)[C@H](CCCNC(=N)N)NC(=O)CNC(=O)[C@H](CCCNC(=N)N)NC(=O)CNC(=O)[C@H](CCCNC(=N)N)NC(=O)CNC(=O)[C@H](CCCNC(=N)N)NC(=O)CNC(=O)[C@H](CCCNC(=N)N)NC(=O)CNC(=O)[C@H](CCCNC(=N)N)NC(=O)CNC(=O)[C@H](CCCNC(=N)N)NC(=O)CNC(=O)[C@H](CCCNC(=N)N)NC(=O)CNC(=O)[C@H](CCCNC(=N)N)NC(=O)CNC(=O)[C@H](CCCNC(=N)N)NC(=O)CNC(=O)[C@H](CCCNC(=N)N)NC(=O)CN)C(=O)O [GR20] | did not induce visible opalescence | increased OD600 | did not increase optical density | do not affect enzyme activity | appearance of half-mer peaks | – | –
2 | PRPRPRPRPRPRPRPRPRPRPRPRPRPRPRPRPRPRPRPR [PR20] | did not induce visible opalescence | increased OD600 | did not increase optical density | do not affect enzyme activity | appearance of half-mer peaks | 254 | 277
